Laboratory results as given in patent US20260123631A1, “NATURAL PORPHIN SALT AND USE THEREOF AS PLANT GROWTH REGULATOR AND PLANT IMMUNITY INDUCER” (NANJING BOSTEC BIOLOGICAL ENGINEERING CO., LTD, priority 2022, published 2026).

Legend:
[1] = Water solubility of the prepared salts; type: physicochemical
[2] = Stability of sample solutions in the dark/under light; type: physicochemical; conditions: under light 30,000 lux, salts in water, acidic reference in 30% to 50% ethanol
Procedure: Determination: An appropriate amount of a salt sample was taken, dissolved with water, and diluted to prepare a test solution with a concentration of about 10 ppm. An acidic reference substance (extremely-insoluble in water) was prepared with a 30% to 50% ethanol aqueous solution into a test solution with a concentration of about 10 ppm.
Each test solution was scanned by an ultraviolet spectrophotometer (at 0 h) for absorbance in a range of 200 nm to 800 nm immediately after being prepared. Then a test solution of each sample was divided into two parts. One part was placed at room temperature of 25° C. in the dark, and the other part was placed under light with a light intensity of 30,000 lux. At 1 h, 2 h, and 3 h, a solution sample was collected and scanned for absorbance respectively.
An absorbance value of a maximum absorption peak at 0 h (starting) of each test solution was set as a relative content of 100%, and a ratio of an absorbance value at each time point to the absorbance value at 0 h was calculated to determine a relative content, %.

Row | solubility in water [1] | Relative content ([2]; 1 h) [%] | Relative content ([2]; 2 h) [%] | Relative content ([2]; 3 h) [%] | Compound
1 | slightly soluble |  |  |  | ferrous hydroxyhematin [Example 67]
2 | slightly soluble |  |  |  | ferrous iron chlorin [Example 25]
3 | slightly soluble | 96.20 | 95.71 | 92.81 | copper hydroxyhematin [Example 70]
4 | slightly soluble | 87.45 | 83.77 | 80.00 | manganese hydroxyhematin [Example 66]
5 | slightly soluble | 79.89 | 76.11 | 73.21 | copper iron hydroxychlorophyllin [Example 80]
6 | slightly soluble |  |  |  | ferrous iron hydroxychlorophyllin [Example 76]
7 | slightly soluble |  |  |  | ferrous zinc chlorophyllin [Example 38]
8 |  | 96.74 | 93.78 | 93.33 | magnesium hydroxyhematin [Example 64]
9 | slightly soluble |  |  |  | ferric chlorin [Example 58]
10 | slightly soluble |  |  |  | C=CC1=C(C)c2cc3[n-]c(cc4nc(cc5[n-]c(cc1n2)c(C)c5CCC(=O)[O-])C(CCC(=O)[O-])=C4C)c(C)c3C=C.[Cl-].[Fe+2].[Fe+3] [Example 16, ferrous chlorhematin]
11 | slightly soluble | 73.29 | 69.57 | 65.55 | zinc iron hydroxychlorophyllin [Example 79]
12 | easily soluble | 60.39 | 52.14 | 47.32 | sodium iron hydroxychlorophyllin [Example 72]
13 | slightly soluble |  |  |  | ferric protoporphyrin [Example 7]
14 | slightly soluble |  |  |  | ferric iron chlorin [Example 26]
15 | slightly soluble |  |  |  | ferric hydroxyhematin [Example 68]
16 | slightly soluble | 93.45 | 93.10 | 92.74 | C=CC1=C(C)c2cc3[n-]c(cc4nc(cc5[n-]c(cc1n2)c(C)c5CCC(=O)[O-])C(CCC(=O)[O-])=C4C)c(C)c3C=C.[Cl-].[Fe+3].[Zn+2] [Example 18, zinc chlorhematin]
17 | slightly soluble | 75.51 | 70.44 | 68.12 | manganese iron hydroxychlorophyllin [Example 78]
18 | easily soluble | 62.96 | 54.32 | 49.38 | potassium iron hydroxychlorophyllin [Example 71]
19 |  | 80.48 | 67.53 | 67.13 | magnesium iron hydroxychlorophyllin [Example 74]
20 | easily soluble | 77.06 | 75.72 | 73.04 | potassium hydroxyhematin [Example 62]
21 | slightly soluble |  |  |  | ferric chlorhematin [Example 17]
22 | slightly soluble |  |  |  | ferric iron chlorophyllin [Example 33]
23 | slightly soluble |  |  |  | ferrous copper chlorophyllin [Example 48]
24 | slightly soluble |  |  |  | ferric copper chlorophyllin [Example 49]
25 | slightly soluble |  |  |  | ferric zinc chlorophyllin [Example 39]
26 | slightly soluble |  |  |  | ferrous iron chlorophyllin [Example 32]
27 | slightly soluble |  |  |  | ferric iron hydroxychlorophyllin [Example 77]
28 | slightly soluble |  |  |  | ferrous chlorin [Example 57]

Row | Compound | solubility in water [1] | Relative content ([2]; 1 h) [%] | Relative content ([2]; 2 h) [%] | Relative content ([2]; 3 h) [%]
29 | C=CC1=C(C)c2cc3[n-]c(cc4nc(cc5[n-]c(cc1n2)c(C)c5C=C)C(C)=C4CCC(=O)[O-])c(CCC(=O)[O-])c3C.[Ca+2].[Cl-].[Fe+3] [Example 14, calcium chlorhematin] | soluble | 82.53 | 81.78 | 81.97
30 | C=CC1=C(C)c2cc3[n-]c(cc4nc(cc5[n-]c(cc1n2)c(C)c5C=C)C(C)=C4CCC(=O)[O-])c(CCC(=O)[O-])c3C.[Cl-].[Fe+3].[Mn+2] [Example 15, manganese chlorhematin] | slightly soluble |  | 82.32 | 81.07
31 | C=CC1=C(C)c2cc3[n-]c(cc4nc(cc5[n-]c(cc1n2)c(C)c5C=C)C(C)=C4CCC(=O)[O-])c(CCC(=O)[O-])c3C.[Cl-].[Fe+3].[NH4+].[NH4+] [Example 12, ammonium chlorhematin] | easily soluble | 73.07 | 67.80 | 66.25
32 | C=CC1=C(C)c2cc3[n-]c(cc4nc(cc5[n-]c(cc1n2)c(C)c5C=C)C(C)=C4CCC(=O)[O-])c(CCC(=O)[O-])c3C.[Fe+3].[Na+].[Na+].[OH-] [Sodium hydroxyhematin, sodium hydroxyhematin, reference compound] | easily soluble | 70.21 | 62.33 | 57.03
33 | C=CC1=C(C)c2cc3[n-]c(cc4nc(cc5[n-]c(cc1n2)c(C)c5C=C)C(C)=C4CCC(=O)O)c(CCC(=O)O)c3C.[Zn+2] [Example 8, zinc protoporphyrin] | slightly soluble | 90.95 | 89.52 | 86.51
34 | C=CC1=C(C)c2cc3[nH]c(cc4nc(cc5[nH]c(cc1n2)c(C)c5C=C)C(C)=C4CCC(=O)[O-])c(CCC(=O)[O-])c3C.[Mn+2] [Example 5, manganese protoporphyrin] | soluble | 92.57 | 90.09 | 88.85
35 | C=CC1=C(C)c2cc3[nH]c(cc4nc(cc5[nH]c(cc1n2)c(C)c5C=C)C(C)=C4CCC(=O)[O-])c(CCC(=O)[O-])c3C.[Ca+2] [Example 4, calcium protoporphyrin] | soluble | 90.07 | 87.11 | 85.89
36 | C=CC1=C(C)c2cc3[nH]c(cc4nc(cc5[nH]c(cc1n2)c(C)c5C=C)C(C)=C4CCC(=O)O)c(CCC(=O)O)c3C.N.N [Example 2, ammonium protoporphyrin] | easily soluble | 60.29 | 48.76 | 45.99
37 | C=CC1=C(C)c2cc3[n-]c(cc4[n-]c(cc5nc(cc1n2)C(C)=C5C=C)c(C)c4CCC(=O)O)c(CCC(=O)O)c3C.[Fe+2] [Example 6, ferrous protoporphyrin] | soluble |  |  | 
